# From US5922838A, “Cyclic hexapeptide compounds” (Taisho Pharmaceutical Co., Ltd., priority 1995, dated 1999)
# Tested on: colon 26 (mouse colon cancer)
# Test: Anti-tumor effect on colon 26 (mouse colon cancer), subcutaneous transplant in CDF1 mice
# Type: in vivo
# Settings: intravenously from day 3 on for 5 days, tumor volume ratio measured day 8, CDF1 male mice, T/C of not more than 42% judged effective
# Experimental: Test Example [Anti-tumor effect on colon 26 (mouse colon cancer)]
# A test was carried out according to the procedure disclosed in Cancer Res., 50. 2290~2295 (1990).
# Colon 26 tumor tissue subcultured and transplanted on BALB/c female mice was excised from tumor-bearing mice by incision on the 11th day after the transplantation, and after removal of connective tissues it was minced with scissors. Then, 5 ml of Hank's balanced salt solution was added to 1 g of the tumor, followed by homogenization in a Luer-Lok syringe. After filtration through silicone gauze, cell number in the filtrate cell solution was counted by a hemocytometer and adjusted to 1.0 ×10^6 cells/ml. The resulting cell suspension was subcutaneously transplanted to CDF1 male mice (aged 6 weeks, Charles River, Japan Co.) at the right axillary site at a dose of 0.2 ml/mouse to provide test tumor-bearing mice with each group consisting of 8 mice. The day of cell transplantation was designated as "day 0". TI-356 was dissolved into a surfactant (a solution of HCO 60: polyethyleneglycol =2:1), followed by slow addition of physiological saline thereto to prepare test solutions of various concentrations with the ultimate concentration being about 0.5%. The test solutions were intravenously administered from "day 3" on for 5 days.
# RA-VII was used as control.
# Tumor propagation-inhibiting effect was determined by measuring the principal axis and the conjugate axis of tumor by a vernier caliper on the day following the completion to administer the compound (day 8) and calculating a tumor volume, a tumor volume ratio and T/C (%) according to the following formulae. T/C of not more than 42% was judged to be effective. [formula]
SMILES,T/C (%) (dose 1.6 mg/kg),T/C (%) (dose 3.13 mg/kg),T/C (%) (dose 6.25 mg/kg),T/C (%) (dose 0.8 mg/kg)
COc1ccc(C[C@H]2C(=O)N[C@@H](C)C(=O)N(C)[C@H]3Cc4ccc(cc4)Oc4cc(ccc4OC)C[C@@H](C(=O)N[C@H](C)C(=O)N[C@@H](C)C(=O)N2C)N(C)C3=O)cc1 [RA-VII],55.8%,48.0%,49.0%,–
COc1ccc(C[C@H]2C(=O)N[C@@H](C)C(=O)N(C)C3Cc4ccc(cc4)Oc4cc(ccc4OCCN(C(C)C)C(C)C)CC(C(=O)N[C@H](C)C(=O)N[C@@H](C)C(=O)N2C)N(C)C3=O)cc1 (stereo partly drawn) [TI-356],41.5%,34.5%,–,42.1%
